The source of these data is ChEMBL document CHEMBL1201862, “PubChem BioAssay data set” (2004).

Activity calls are given as the source filed them. Bounds are passed on as bounds.

Experiment [1] has as its target SWI/SNF-related matrix-associated actin-dependent regulator of chromatin subfamily A member 2 (Homo sapiens, UniProt P51531). Put plainly: Luminescence-based cell-based high throughput dose response assay to identify activators of the function of SWI/SNF related, matrix associated, actin dependent regulator of chromatin, subfamily a, member 2 (SMARCA2, BRM). Format: functional.

Experiment [2] concerns the target T1, Coagulation factor XII (Homo sapiens, UniProt P00748).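 Also: activated factor XIIa alpha cleaving a fluorogenic AMC peptide substrate; inhibitor potency from loss of enzyme activity.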
T1 sequence (P00748 whole entry): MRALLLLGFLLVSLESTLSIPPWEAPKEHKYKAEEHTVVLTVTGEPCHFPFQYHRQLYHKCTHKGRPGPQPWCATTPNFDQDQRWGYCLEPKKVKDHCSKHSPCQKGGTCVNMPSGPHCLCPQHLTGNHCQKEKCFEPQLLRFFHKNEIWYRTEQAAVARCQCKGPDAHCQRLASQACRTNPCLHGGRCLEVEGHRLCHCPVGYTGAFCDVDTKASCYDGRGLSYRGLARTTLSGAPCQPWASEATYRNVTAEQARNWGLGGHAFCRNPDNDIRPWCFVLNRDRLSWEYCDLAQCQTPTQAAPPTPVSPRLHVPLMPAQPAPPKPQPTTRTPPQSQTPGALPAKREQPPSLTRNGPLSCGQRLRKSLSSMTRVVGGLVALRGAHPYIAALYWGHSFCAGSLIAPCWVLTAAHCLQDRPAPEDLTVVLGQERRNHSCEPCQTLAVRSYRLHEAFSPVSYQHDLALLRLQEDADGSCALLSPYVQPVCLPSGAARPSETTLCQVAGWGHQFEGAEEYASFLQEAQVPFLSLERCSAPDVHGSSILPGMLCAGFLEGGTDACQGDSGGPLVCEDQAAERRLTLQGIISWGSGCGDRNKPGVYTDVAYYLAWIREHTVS
It is filed as functional.

Experiment [3] in a line: Counterscreen for activators of the function of SWI/SNF related, matrix associated, actin dependent regulator of chromatin, subfamily a, member 2 (SMARCA2, BRM): Luminescence-based cell-based high throughput dose response assay to identify non-selective compounds using the VP16 reporter assay. It is filed as functional. (Counterscreens check selectivity or assay interference.)

Experiment [4] has as its target T2, Type-1 angiotensin II receptor (Homo sapiens, UniProt P30556).
T2 sequence (P30556 whole entry): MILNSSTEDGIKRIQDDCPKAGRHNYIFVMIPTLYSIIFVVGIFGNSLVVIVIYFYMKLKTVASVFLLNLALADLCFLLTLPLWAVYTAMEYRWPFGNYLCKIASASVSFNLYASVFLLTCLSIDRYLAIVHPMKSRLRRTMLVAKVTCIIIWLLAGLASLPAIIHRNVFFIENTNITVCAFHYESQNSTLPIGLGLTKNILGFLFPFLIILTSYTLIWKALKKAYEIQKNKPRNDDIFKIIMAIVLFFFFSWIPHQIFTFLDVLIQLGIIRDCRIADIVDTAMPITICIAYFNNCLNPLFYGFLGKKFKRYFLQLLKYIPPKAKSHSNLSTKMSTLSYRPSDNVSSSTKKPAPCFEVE
Put plainly: AT1 receptor agonists, dose response, selectivity assay for APJ receptor agonist project, cell-based, uHTS hits (AID 488865).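 Also: beta-arrestin recruitment to AT1 measured by enzyme fragment complementation luminescence.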 It is filed as functional.

The target in experiment [5] is T3, Protein RecA (Mycobacterium tuberculosis, UniProt P9WHJ3).
T3 sequence (P9WHJ3 whole entry): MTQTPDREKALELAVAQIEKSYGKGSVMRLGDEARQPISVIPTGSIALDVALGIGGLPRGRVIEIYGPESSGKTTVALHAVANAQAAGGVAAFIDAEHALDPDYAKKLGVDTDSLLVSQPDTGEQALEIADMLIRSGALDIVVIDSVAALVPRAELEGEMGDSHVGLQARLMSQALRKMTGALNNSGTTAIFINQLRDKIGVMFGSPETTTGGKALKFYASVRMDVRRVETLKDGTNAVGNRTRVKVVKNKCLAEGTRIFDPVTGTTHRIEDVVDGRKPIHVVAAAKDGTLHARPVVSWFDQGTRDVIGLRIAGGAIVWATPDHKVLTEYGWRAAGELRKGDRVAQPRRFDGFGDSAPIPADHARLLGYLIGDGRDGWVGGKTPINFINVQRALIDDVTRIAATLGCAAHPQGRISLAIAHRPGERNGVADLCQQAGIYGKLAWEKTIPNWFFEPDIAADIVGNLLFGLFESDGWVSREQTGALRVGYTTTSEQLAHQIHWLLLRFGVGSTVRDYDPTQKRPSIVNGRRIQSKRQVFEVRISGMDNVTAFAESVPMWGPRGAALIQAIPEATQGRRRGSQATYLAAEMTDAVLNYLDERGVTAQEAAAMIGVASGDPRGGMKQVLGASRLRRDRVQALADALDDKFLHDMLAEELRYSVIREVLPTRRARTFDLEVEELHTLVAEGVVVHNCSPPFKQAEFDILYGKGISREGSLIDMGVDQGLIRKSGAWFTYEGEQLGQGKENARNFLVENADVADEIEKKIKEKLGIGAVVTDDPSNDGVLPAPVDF
Nature of the experiment: Fluorescence Cell-Free Homogeneous Dose Retest to Identify Inhibitors of RecA-Intein Splicing Activity. [Related pubchem assays (depositor defined):AID2097, AID2223, AID489010, AID492950]. Format: functional.

Experiment [6] has as its system BJ. Nature of the experiment: cytotoxicity toward BJ-TERT fibroblasts, dose response, cell-based, RAS-independent, luminescence (AID 1933). Particulars: Homo sapiens. It is filed as functional.
Experiment [7] can be described thus: Intein inhibitors as potential Tuberculosis drugs, a cytotoxicity screen. [Related pubchem assays (depositor defined):AID2221, AID2223, AID434968, AID435010, AID449749, AID449750, AID489010]. It is filed as functional.
A short description of experiment [8]: cytotoxicity toward DRD oncogenic fibroblasts, dose response, cell-based, non-viral oncogenic, luminescence (AID 1934). It is filed as functional. Particulars: Homo sapiens.
Experiment [9] addresses T4, Replicative DNA helicase DnaB (Mycobacterium tuberculosis, UniProt P9WMR3).
T4 sequence (P9WMR3 whole entry): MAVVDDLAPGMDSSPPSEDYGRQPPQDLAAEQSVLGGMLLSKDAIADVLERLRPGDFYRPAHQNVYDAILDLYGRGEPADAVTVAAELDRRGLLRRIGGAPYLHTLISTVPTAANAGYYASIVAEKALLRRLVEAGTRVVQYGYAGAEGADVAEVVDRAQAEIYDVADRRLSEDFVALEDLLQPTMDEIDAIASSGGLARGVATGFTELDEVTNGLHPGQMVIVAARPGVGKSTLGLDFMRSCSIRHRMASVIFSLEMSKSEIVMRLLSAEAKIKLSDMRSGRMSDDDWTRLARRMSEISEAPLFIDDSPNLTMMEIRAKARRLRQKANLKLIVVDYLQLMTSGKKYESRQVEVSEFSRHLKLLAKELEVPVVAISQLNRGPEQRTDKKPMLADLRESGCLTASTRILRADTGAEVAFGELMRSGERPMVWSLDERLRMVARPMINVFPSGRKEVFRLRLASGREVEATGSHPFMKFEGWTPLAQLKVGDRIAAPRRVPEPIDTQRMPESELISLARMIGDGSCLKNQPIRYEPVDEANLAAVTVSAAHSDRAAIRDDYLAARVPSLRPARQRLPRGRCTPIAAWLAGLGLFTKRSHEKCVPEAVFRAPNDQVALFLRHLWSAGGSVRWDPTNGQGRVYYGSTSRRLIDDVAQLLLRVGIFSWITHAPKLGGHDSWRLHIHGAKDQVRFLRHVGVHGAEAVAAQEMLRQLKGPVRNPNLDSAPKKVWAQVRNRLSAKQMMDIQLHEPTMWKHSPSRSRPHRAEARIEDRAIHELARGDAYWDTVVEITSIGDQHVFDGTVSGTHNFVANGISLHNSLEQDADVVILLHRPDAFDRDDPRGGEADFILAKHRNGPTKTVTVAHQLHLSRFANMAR
Nature of the experiment: DnaB intein splicing inhibitors, dose response, biochemical, cell-free fluorescence (AID 449749). It is filed as functional.

Experiment [10] relates to BJ. Put plainly: cytotoxicity toward BJ-TERT-LT-ST fibroblasts, dose response, cell-based, RAS-independent, luminescence (AID 1935).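 Also: BJ fibroblasts immortalized with TERT plus LT and ST oncogenes.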 Particulars: Homo sapiens. It is filed as functional.
Experiment [11] concerns the target Paired box protein Pax-8 (Homo sapiens, UniProt Q06710). Put plainly: inhibitors of PAX8-driven TPO luciferase reporter, dose response, RMG-I cells, cherry-pick (AID 687027).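 Also: luciferase reporter driven by Pax8 target thyroperoxidase promoter measured by SteadyGlo luminescence.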 It is filed as functional, cell-based. On the technique in general: A reporter such as luciferase makes a cellular process visible.
A short description of experiment [12]: non-specific cell cytotoxicity, dose response, cytotoxicity control for PAX8 inhibitor project, plate reader, dry powder samples (AID 743021). It is filed as functional, cell-based.
In experiment [13] the test system is BJ. Nature of the experiment: cells. It is filed as functional, cell-based. Particulars: Homo sapiens.
Experiment [14] concerns INS1. Put plainly: beta cell apoptosis inhibitors, cytokine rescue, dose response, luminescence, retest (AID 449756).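 Also: cell death triggered by IL-1 beta plus TNF-alpha plus IFN-gamma mixture; protective hits raise ATP signal compared with cytokine alone wells.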 Particulars: Rattus norvegicus. It is filed as functional, cell-based.
Experiment [15] concerns the target T5, COUP transcription factor 2 (Homo sapiens, UniProt P24468).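 Also: HEK293 cells transiently cotransfected with COUP-TFII expression vector and reporter; luciferase reporter luminescence driven by COUP-TFII from the pX2-168 reporter plasmid.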
T5 sequence (P24468 whole entry): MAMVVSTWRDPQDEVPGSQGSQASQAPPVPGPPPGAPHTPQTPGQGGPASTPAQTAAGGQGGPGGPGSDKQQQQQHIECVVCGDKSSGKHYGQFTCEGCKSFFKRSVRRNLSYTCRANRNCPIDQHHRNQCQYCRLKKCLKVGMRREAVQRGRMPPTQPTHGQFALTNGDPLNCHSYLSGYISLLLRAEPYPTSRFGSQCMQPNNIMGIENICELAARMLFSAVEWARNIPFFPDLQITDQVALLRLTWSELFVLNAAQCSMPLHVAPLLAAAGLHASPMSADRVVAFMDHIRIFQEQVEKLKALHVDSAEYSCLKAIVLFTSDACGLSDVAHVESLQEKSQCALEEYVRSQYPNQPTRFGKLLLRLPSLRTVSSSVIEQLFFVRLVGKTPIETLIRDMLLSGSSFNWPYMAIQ
Nature of the experiment: Luminescence-based cell-based high throughput dose response assay to identify inhibitors of COUP-TFII (NR2F2). Format: functional.

Experiment [16] concerns the target Troponin, cardiac muscle (Homo sapiens, UniProt P19429+P45379+P63316). Nature of the experiment: Fluorescence-based biochemical high throughput dose response assay for activators of the calcium sensitivity of cardiac Regulated Thin Filaments (RTF). [Related pubchem assays (depositor defined):AID493008, AID493018, AID504382, AID504383]. Format: protein-complex assay.

Experiment [17] concerns the target T6, Alkaline phosphatase, tissue-nonspecific isozyme (Homo sapiens, UniProt P05186).
T6 sequence (P05186 whole entry): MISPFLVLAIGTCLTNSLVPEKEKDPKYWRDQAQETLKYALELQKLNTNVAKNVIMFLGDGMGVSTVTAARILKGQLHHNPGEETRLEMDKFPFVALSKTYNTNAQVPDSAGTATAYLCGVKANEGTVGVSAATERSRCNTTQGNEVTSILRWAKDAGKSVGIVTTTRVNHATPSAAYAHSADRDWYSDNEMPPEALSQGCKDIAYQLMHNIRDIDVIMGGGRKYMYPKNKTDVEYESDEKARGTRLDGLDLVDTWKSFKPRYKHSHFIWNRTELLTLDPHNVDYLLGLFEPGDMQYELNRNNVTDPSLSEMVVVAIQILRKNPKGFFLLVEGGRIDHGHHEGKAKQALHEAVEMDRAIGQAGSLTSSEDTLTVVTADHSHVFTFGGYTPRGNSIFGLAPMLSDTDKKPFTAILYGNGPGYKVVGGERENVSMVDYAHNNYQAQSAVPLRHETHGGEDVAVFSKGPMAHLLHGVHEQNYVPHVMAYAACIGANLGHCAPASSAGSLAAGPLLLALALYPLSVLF
Put plainly: human TNAP enzyme inhibitors, SAR follow-up, biochemical, luminescent, dose response (AID 1056).

Experiment [18] deals with Glyceraldehyde-3-phosphate dehydrogenase (Homo sapiens, UniProt P04406).
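For CC50 in this document: cells exposed to compound for 72 hours before luminescence readout.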

As usually defined, the EC50 is the concentration giving half of the maximal effect. As a reminder, the IC50 is the concentration needed to halve the response being measured. Regarding `CC1CCN(S(=O)(=O)c2ccc3nc(-c4ccccn4)cc(C(=O)NCCN(C)Cc4ccccc4)c3c2)CC1`, the EC50 in experiment [1] is > 91.2 µM (inactive); in [3] it was > 91.2 µM (inactive); in [4], > 100 µM (inactive). Also, the IC50 in [2] was > 50 µM (inactive).

As a reminder, the CC50 is the concentration that lowers cell viability or growth by half. By AC50 is commonly meant the concentration at which the activity in the assay is half-maximal. As for `CC(=O)n1cc(N(C(=O)CCl)c2ccccc2)c2ccccc21`, the EC50 is 0.347 µM (active) in experiment [5]; 0.654 µM (inconclusive) in experiment [6]; 0.912 µM (active) in experiment [8]; 5.99 µM (active) in experiment [10]; 1.51 µM (inconclusive) in experiment [13]. The CC50 in [7] was 1.16 µM (active). Besides, the AC50 is 2.3 µM (active) in experiment [9], 1.34 µM (active) in experiment [11] and 4.84 µM (active) in [12].

Regarding `CC(C)(C)OC(=O)NCCCCCc1cn([C@@H](CO)C(=O)NCCCCCCCCCCC(=O)N2CCN(C(=O)OC(C)(C)C)CC2)nn1`, the AC50 in [14] is 5.45 µM (active). Further, the IC50 in experiment [15] is 3.28 µM (active). Moreover, in experiment [4], the EC50 was > 100 µM (inactive).

For `CCc1ccc(C(=O)NNC(=O)c2cccc(N3C(=O)CCC3=O)c2)cc1`, the EC50 in [16] is > 71.5 µM (inactive).

As for `COc1ccc(S(=O)(=O)Nc2ccc3ccccc3c2)c(OC)c1`, the IC50 was > 10 µM (inactive) in experiment [17] and > 10 µM (inconclusive) in experiment [18].

With `O=C(Nc1ccc(C(=O)N2CCOCC2)cc1)Nc1cccc(Cl)c1`, the EC50 in [16] is > 71.5 µM (inactive).
